Experiments:
[1] = target: Triosephosphate isomerase (Homo sapiens, UniProt P60174); experiment: Inhibition Assay; details: pH 7.4; 37 °C
Protocol: (§1) The reaction mixture (1 mL, pH 7.4) contained 100mM triethanolamine, 10mM EDTA, 0.2mM NADH, 1mM glyceraldehyde 3-phosphate (GAP) and 0.9 units of α-glycerol phosphate dehydrogenase (α-GPDH). The reaction was initiated by addition of 5 ng/mL of the corresponding TIM or the corresponding TIM pre-incubated with the studied compounds. In these cases, inhibition assays, the enzymes were pre-incubated for 2 h at 37 °C with the studied compounds.

[2] = target: Triosephosphate isomerase, glycosomal (Trypanosoma brucei brucei, UniProt P04789); experiment: Inhibition Assay; details: pH 7.4; 37 °C
Protocol: as §1

Triosephosphate isomerase, glycosomal, sequence (P04789 whole entry): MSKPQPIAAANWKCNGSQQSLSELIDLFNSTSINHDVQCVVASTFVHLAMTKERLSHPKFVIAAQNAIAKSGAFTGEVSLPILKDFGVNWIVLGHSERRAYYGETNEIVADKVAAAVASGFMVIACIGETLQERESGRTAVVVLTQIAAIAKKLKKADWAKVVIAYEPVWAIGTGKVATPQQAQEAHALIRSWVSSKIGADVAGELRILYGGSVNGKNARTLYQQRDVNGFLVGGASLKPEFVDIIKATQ

| Structure (SMILES) | IC50 [1] [µM] | IC50 [2] [µM] |
| --- | --- | --- |
| Cc1ccc(-c2nsc(=O)[nH]2)cc1 [TIM inhibitor, 1] | 100 |  |
| O=C1C(=Cc2ccc([N+](=O)[O-])o2)C(=O)N(Cc2ccccc2)SN1Cc1ccccc1 [TIM inhibitor, 3] | > 100 | 34 |
| Oc1ccc2nc3cc(Cl)c(Cl)cc3nc2c1 [TIM inhibitor, 2] | > 100 |  |

From BindingDB's records for doi:10.3109/14756366.2013.765415 (Universidad de la República, 2014)
